Data reported in patent US20070123460A1, “Probiotic compounds from Lactobacillus GG and uses therefor” (THE UNIVERSITY OF CHICAGO, priority 2005, published 2007).

Tested on: Hsp72
Assay: Hsp72 induction in YAMC cells, Western blot
Type: cell-based, mouse
Conditions: inhibitor 2 hours before LGG-CM (15 minutes); harvest 4 hours later; SB203580 20 μM, SP600125 20 μM, PD98059 50 μM
Description: Prior to each study, cells were plated at a density of 2×10^5 per 60 mm tissue culture dish. For RNA preparation, cells were plated at a density of 7.5×10^5 cells per p100 mm dish. After 24 hours of growth at 33° C., the medium was replaced with IFN-free media and cells were moved to 37° C. (non-permissive conditions) for 24 hours to allow development of the differentiated colonocyte phenotype. […] Heat shock controls were heat-shocked at 42° C. for 23 minutes and then left at 37° C. for 2 hours before harvest.
Intestinal epithelial cells were treated with conditioned media from the probiotic LGG and then assayed for inducible heat shock protein expression. For Western blot analyses of expression, cells were washed twice and then scraped in ice-cold PBS (137 mM NaCl, 2.7 mM KCl, 8 mM Na2HPO4, pH 7.4). Cells were pelleted (14,000×g for 20 seconds at room temperature), then resuspended in ice-cold lysis buffer (10 mM Tris, pH 7.4, 5 mM MgCl2, 50 U/ml each of DNAse and RNAse, plus complete protease inhibitor cocktail (Roche Molecular Biochemicals, Indianapolis, Ind.)). Protein concentrations were determined using the bicinchoninic acid procedure (Smith et al., 1985). Samples were heated to 75° C. for 5 minutes after addition of 3× Laemmli Stop buffer, then stored at −80° C. until use.
Twenty micrograms of protein per lane were resolved on 12.5% SDS-PAGE. […]

## COc1cccc(-c2cc(=O)c3ccccc3o2)c1N [PD98059]
  inhibition of LGG-CM-induced Hsp72 expression: more modest effect
